From US6617326B2 (dated 2003)

| melting point [°C] | Structure (SMILES) |
| --- | --- |
| 156 to 159 | CC(C)(F)c1cnn2c(-c3ccc(F)c(-c4ccc(F)cc4C#N)c3)cnc2n1 |
| 175 | CC(C)(O)c1cnn2c(-c3cccc(-c4ccc(F)cc4C#N)c3)cnc2n1 |
| 215 | CC(C)(O)c1cnn2c(-c3ccc(F)c(-c4ccc(F)cc4C#N)c3)cnc2n1 |
| 200 to 201 | N#Cc1ccc(F)cc1-c1cc(-c2cnc3nc(C(F)(F)F)cnn23)ccc1F |
